Test results from US20240058298A1, “GENISTEIN FOR USE IN THE TREATMENT OF FOCAL SEGMENTAL GLOMERULOSCLEROSIS (FSGS)” (Delta 4 GmbH, priority 2020, published 2024).

Test system: adriamycin induced nephropathy (FSGS model)
Test: Adriamycin induced nephropathy mouse model of FSGS, proteinuria (UPCR, UACR) in spot urine
Type: in vivo, Female Balb/c mice
Details: for urinary protein to creatinine ratio (UPCR): Balb/c mice, adriamycin 10.5 mg/kg i.v., chow + genistein 500 mg/kg (about 80 mg/kg mouse/day) from day 2, weekly spot urine, vs control chow
Method: For biological testing of genistein, the accepted mouse models of FSGS, was chosen, i.e. the adriamycin induced nephropathy. […] All animal experiments and handling were in accordance with the Austrian law for protection of animals and approved by the animal ethics committee of the Austrian ministry for science and research.
Adriamycin (Doxorubicin; Sigma, D1515-10 mg) was diluted in ddH2O. To induce FSGS, a dose of 10.5 mg/kg mouse was injected i.v. into the tail vein using 27G needles, i.e. a total volume of 200 μl volume per 25 g mouse.
For tail vein injection, mice were anaesthetized using Ketanest (Pfizer, 25 mg/ml vials) and Rompun (Bayer, 20 mg/ml injection solution). A final mix of 12.5 mg/ml Ketanest and 0.25% Rompun in 0.9% NaCl solution was prepared and 200 μl/25 g mouse were injected. Genistein (Selleckchem, S1342) was used for therapy experiments.
Female Balb/c mice were obtained from the animal breeding facility of the Medical University (Abteilung kw Labortierkunde, Himberg, Austria). 8-18 weeks old animals with a weight >17g were used for the experiments and adjusted for weight and age. Animals were allowed acclimatization of at least 7 days. Animal were marked by ear or toe clip codes to allow identification. Adriamycin nephropathy in Balb/c mice is the most commonly used animal model for preclinical FSGS studies and shares the central features with human FSGS.
Standard commercial chow from ssniff (ssniff Spezialdiäten GmbH, Soest, Germany) contained crude protein (19%), crude fat (3.3%), crude fiber (4.9%), crude ash (6.4%), starch (36.5%), sugar (4.7%). Control group animals were fed standard chow, test group animals standard chow+genistein (500 mg/kg) produced by ssniff. All animals were allowed to eat ad libitum assuming a daily average uptake of about 4 grams/mouse (according to animal care guideline of the Johns Hopkins University, Baltimore, MD, USA; http://web.jhu.edu/animalcare/ procedures/mouse.html), i.e. about 80 mg genistein/kg mouse/day (Odle et al. 2017).
Spot urine was collected every week and Creatinine and protein levels were measured in the Clinical Institute for Laboratory Medicine of the Medical University Vienna.
Urinary albumin was measured by ELISA. 96-well plates were coated over night at 4° C. with 100 μl antibody solution Anti Mouse Serum Albumin antibody (Abcam ab34807, Lot GR3242102-4; diluted 1:2,000) in coating buffer (3.7g NaHCO3; 0.64 g Na2CO3; 1L distilled water). The remaining procedure was performed at room temperature. Wells were washed 3× with HBSS (Sigma H8264-500ML) +0,05% Tween-20 (Bio-Rad, #1706531) and blocked in ELISA/ELISPOT Diluent (eBioscience, 00-4202-56) and washed again for 3×. Samples and standard curve were both diluted in ELISA/ELISPOT diluent were incubated for 2 h, followed by 3 wash steps with HBSS+0.05% Tween-20, incubated with HRP antibody Anti Mouse Serum Albumin antibody (Abcam ab19195, Lot GR3242102-4; diluted 1:100,000) for 1 h, followed by 5 was steps. Reaction was developed with TMB One Solution (Promega, G7431) and stopped with 2N H2SO4. Standard curves were generated with Mouse Albumin (Merck/Sigma, 126674-25MG). 450nm absorbance was measured on an Epoch Microplate reader (BioTek) using Gen5 1.10 software.
R version 4.0.2 was used for statistical analysis. Student's t-test was used for comparing UPCR and UACR values between samples from treated and control mice for each individual time point and to assess differences in histological parameters. […]

O=c1c(-c2ccc(O)cc2)coc2cc(O)cc(O)c12 [Genistein, 5,7-Dihydroxy-3-(4-hydroxyphenyl)chromen-4-one]
urinary protein to creatinine ratio (UPCR): marked amelioration
urinary protein to creatinine ratio (UPCR) (listed as compound of the present invention): significantly lowered
Proteinuria (adriamycin FSGS mice, genistein chow vs control): Significantly Reduces
impact of genistein treatment over time on outcome determined based on UPCR levels (repeated measures ANOVA) (adriamycin FSGS mice, genistein chow vs control, all collected urines (FIG. 1)): significant beneficial impact
urine albumin/creatinine ratio (UACR) (animal studies, urinary albumin by ELISA, genistein vs control): significantly lowered
